Experimental data from ChEMBL document CHEMBL4308841, “Synthesis, in vitro antiproliferative activity, and kinase inhibitory effects of pyrazole-containing diarylureas and diarylamides” (Eur J Med Chem, 2018).

Key:
[1] = tested on: CCRF-CEM; test: Growth inhibition of human CCRF-CEM cells incubated for 48 hrs by sulforhodamine B assay; format: functional, cell-based
[2] = tested on: HOP-62; test: Growth inhibition of human HOP62 cells incubated for 48 hrs by sulforhodamine B assay; format: functional, cell-based; details: HOP-62, 48 h
[3] = tested on: NCI-H460; test: Growth inhibition of human NCI-H460 cells incubated for 48 hrs by sulforhodamine B assay; format: functional, cell-based; details: NCI-H460, 48 h
[4] = tested on: HCT-15; test: Growth inhibition of human HCT15 cells incubated for 48 hrs by sulforhodamine B assay; format: functional, cell-based; details: HCT-15, 48 h
[5] = tested on: SK-MEL-5; test: Growth inhibition of human SK-MEL-5 cells incubated for 48 hrs by sulforhodamine B assay; format: functional, cell-based; details: SK-MEL-5, 48 h
[6] = tested on: MCF7; test: Growth inhibition of human MCF7 cells incubated for 48 hrs by sulforhodamine B assay; format: functional, cell-based; details: MCF7, 48 h
[7] = tested on: MDA-MB-468; test: Growth inhibition of human MDA-MB-468 cells incubated for 48 hrs by sulforhodamine B assay; format: functional, cell-based; details: MDA-MB-468, 48 h
[8] = tested on: A549; test: Growth inhibition of human A549/ATCC cells assessed as cell growth at 0.01 uM incubated for 48 hrs by sulforhodamine B assay relative to control; format: functional; details: A549, 48 h, read-out: Activity
[9] = tested on: NCI-H226; test: Growth inhibition of human NCI-H226 cells assessed as cell growth at 0.01 uM incubated for 48 hrs by sulforhodamine B assay relative to control; format: functional; details: NCI-H226, 48 h, read-out: Activity
[10] = tested on: M14; test: Growth inhibition of human M14 cells assessed as cell growth at 0.01 uM incubated for 48 hrs by sulforhodamine B assay relative to control; format: functional; details: M14, 48 h, read-out: Activity
[11] = tested on: OVCAR-4; test: Growth inhibition of human OVCAR4 cells assessed as cell growth at 0.01 uM incubated for 48 hrs by sulforhodamine B assay relative to control; format: functional; details: OVCAR-4, 48 h, read-out: Activity
[12] = tested on: ACHN; test: Growth inhibition of human ACHN cells assessed as cell growth at 0.01 uM incubated for 48 hrs by sulforhodamine B assay relative to control; format: functional; details: read-out: Activity
[13] = tested on: CAKI-1; test: Growth inhibition of human Caki1 cells assessed as cell growth at 0.01 uM incubated for 48 hrs by sulforhodamine B assay relative to control; format: functional; details: CAKI-1, 48 h, read-out: Activity
[14] = tested on: UO-31; test: Growth inhibition of human UO31 cells assessed as cell growth at 0.01 uM incubated for 48 hrs by sulforhodamine B assay relative to control; format: functional; details: UO-31, 48 h, read-out: Activity
[15] = tested on: PC-3; test: Growth inhibition of human PC3 cells assessed as cell growth at 0.01 uM incubated for 48 hrs by sulforhodamine B assay relative to control; format: functional; details: PC-3, 48 h, read-out: Activity
[16] = tested on: DU-145; test: Growth inhibition of human DU145 cells assessed as cell growth at 0.01 uM incubated for 48 hrs by sulforhodamine B assay relative to control; format: functional; details: DU-145, 48 h, read-out: Activity
[17] = tested on: Hs-578T; test: Growth inhibition of human Hs578T cells assessed as cell growth at 0.01 uM incubated for 48 hrs by sulforhodamine B assay relative to control; format: functional; details: read-out: Activity
[18] = tested on: SNB-75; test: Growth inhibition of human SNB75 cells assessed as cell growth at 0.1 uM incubated for 48 hrs by sulforhodamine B assay relative to control; format: functional; details: SNB-75, 48 h, read-out: Activity
[19] = tested on: UACC-62; test: Growth inhibition of human UACC62 cells assessed as cell growth at 0.1 uM incubated for 48 hrs by sulforhodamine B assay relative to control; format: functional; details: UACC-62, 48 h, read-out: Activity
[20] = tested on: 786-0; test: Growth inhibition of human 786-0 cells assessed as cell growth at 0.1 uM incubated for 48 hrs by sulforhodamine B assay relative to control; format: functional; details: 786-0, 48 h, read-out: Activity
[21] = tested on: PC-3; test: Growth inhibition of human PC3 cells assessed as cell growth at 0.1 uM incubated for 48 hrs by sulforhodamine B assay relative to control; format: functional; details: PC-3, 48 h, read-out: Activity
[22] = tested on: HL-60(TB); test: Growth inhibition of human HL-60(TB) cells assessed as cell growth at 1 uM incubated for 48 hrs by sulforhodamine B assay relative to control; format: functional; details: HL-60, 48 h, read-out: Activity
[23] = tested on: A549; test: Growth inhibition of human A549/ATCC cells assessed as cell growth at 1 uM incubated for 48 hrs by sulforhodamine B assay relative to control; format: functional; details: A549, 48 h, read-out: Activity
[24] = tested on: NCI-H460; test: Growth inhibition of human NCI-H460 cells assessed as cell growth at 1 uM incubated for 48 hrs by sulforhodamine B assay relative to control; format: functional; details: NCI-H460, 48 h, read-out: Activity
[25] = tested on: HCC 2998; test: Growth inhibition of human HCC2998 cells assessed as cell growth at 1 uM incubated for 48 hrs by sulforhodamine B assay relative to control; format: functional; details: HCC 2998, 48 h, read-out: Activity
[26] = tested on: ACHN; test: Growth inhibition of human ACHN cells assessed as cell growth at 1 uM incubated for 48 hrs by sulforhodamine B assay relative to control; format: functional; details: read-out: Activity
[27] = tested on: MCF7; test: Growth inhibition of human MCF7 cells assessed as cell growth at 1 uM incubated for 48 hrs by sulforhodamine B assay relative to control; format: functional; details: MCF7, 48 h, read-out: Activity
[28] = tested on: BT-549; test: Growth inhibition of human BT549 cells assessed as cell growth at 1 uM incubated for 48 hrs by sulforhodamine B assay relative to control; format: functional; details: BT-549, 48 h, read-out: Activity
[29] = tested on: NCI-H23; test: Growth inhibition of human NCI-H23 cells assessed as cell growth at 100 uM incubated for 48 hrs by sulforhodamine B assay relative to control; format: functional; details: NCI-H23, 48 h, read-out: Activity
[30] = read-out: LC50 (the source's name)
[31] = read-out: pLC50 (the source's name) (converted)

In the case of `COc1cc(Cl)cc(-c2nn(-c3cccc(NC(=O)Nc4cccc(C(F)(F)F)c4)c3)cc2-c2ccncc2)c1`, the GI50 ([1]; read-out: GI50) is reported as 1.2 µM, the CC50 [1, 30] is reported as over 100 µM and the TGI ([1]; read-out: TGI) is reported as 53.6 µM. For the same compound, the GI50 ([1]; read-out: pGI50 (converted)) was 1.2 µM, the CC50 [1, 31] was over 100 µM and the TGI ([1]; read-out: pTGI (converted)) was 5.37 µM. It also gave a GI50 ([2]; read-out: GI50) of 2.51 µM, a CC50 [2, 30] of over 100 µM and a TGI ([2]; read-out: TGI) of 13.1 µM. For the same compound, the GI50 ([2]; read-out: pGI50 (converted)) was 2.82 µM, the CC50 [2, 31] was over 100 µM and the TGI ([2]; read-out: pTGI (converted)) was 13.2 µM. The GI50 ([3]; read-out: GI50) was 0.84 µM, the CC50 [3, 30] was over 100 µM and the TGI ([3]; read-out: TGI) was 45.8 µM. The CC50 [3, 31] was over 100 µM, the GI50 ([4]; read-out: GI50) was 1.34 µM and the CC50 [4, 30] was 50 µM. It also gave a TGI ([4]; read-out: TGI) of 10.6 µM, a GI50 ([4]; read-out: pGI50 (converted)) of 1.35 µM and a CC50 [4, 31] of 50.1 µM. For the same compound, the TGI ([4]; read-out: pTGI (converted)) was 10.7 µM, the GI50 ([5]; read-out: GI50) was 1.43 µM and the CC50 [5, 30] was 54.5 µM. For the same compound, the TGI ([5]; read-out: TGI) was 25.4 µM, the GI50 ([5]; read-out: pGI50 (converted)) was 1.48 µM and the CC50 [5, 31] was 5.5 µM. It also gave a TGI ([5]; read-out: pTGI (converted)) of 2.82 µM, a GI50 ([6]; read-out: GI50) of 1.48 µM and an LC50 ([6]; read-out: LC50) of over 100 µM. For the same compound, the TGI ([6]; read-out: TGI) was 75.7 µM, the GI50 ([6]; read-out: pGI50 (converted)) was 1.48 µM and the LC50 ([6]; read-out: pLC50 (converted)) was over 100 µM. For the same compound, the TGI ([6]; read-out: pTGI (converted)) was 7.59 µM, the IC50 [7] was 1.05 µM and the GI50 ([7]; read-out: GI50) was 1.05 µM. It also gave a CC50 [7, 30] of over 100 µM, a TGI ([7]; read-out: TGI) of 49.9 µM and a GI50 ([7]; read-out: pGI50 (converted)) of 1.05 µM. For the same compound, the CC50 [7, 31] was over 100 µM, the TGI ([7]; read-out: pTGI (converted)) was 5.01 µM and the growth at 0.01 µM [8] was 100%. The growth at 0.01 µM [9] was 95%, the growth at 0.01 µM [10] was 98% and the growth at 0.01 µM [11] was 93%. For the same compound, the growth at 0.01 µM [12] was 108%, the growth at 0.01 µM [13] was 102% and the growth at 0.01 µM [14] was 91%. The growth at 0.01 µM [15] was 91%, the growth at 0.01 µM [16] was 101% and the growth at 0.01 µM [17] was 99%. It also gave a growth at 0.1 µM [18] of 55%, a growth at 0.1 µM [19] of 96% and a growth at 0.1 µM [20] of 99%. The growth at 0.1 µM [21] was 57%, the growth at 1 µM [22] was 81% and the growth at 1 µM [23] was 43%. For the same compound, the growth at 1 µM [24] was 45%, the growth at 1 µM [25] was 98% and the growth at 1 µM [26] was 65%. It also gave a growth at 1 µM [27] of 62%, a growth at 1 µM [28] of 93% and a growth at 100 µM [29] of -40%.
